The conditions of this data set: 24 h, pH 7.4.

In brackets after ≈: the same amount, converted by molar mass.

In turn, `CC(=O)N1CCC(NC(=O)NC23CC4CC(CC(C4)C2)C3)CC1` [AR9281] gave a Solubility of 277 µg/mL (≈ 867 µM).

For orientation: Solubility means how much of the substance goes into solution per volume.

The record behind these values is paper PMC8399023 (Molecules, 2021).
